Literature values in US8680270B2, “Metallo-oxidoreductase inhibitors using metal binding moieties in combination with targeting moieties” (Viamet Pharmaceuticals, Inc., priority 2006, dated 2014).
Read-outs that look alike come from different tables or passages of the source.

Columns and labels:
[1] = tested on: androgen-independent, anaplastic AT-6 tumors; conditions: 120 mg/100 gm food, equivalent to 100 mg/kg per day
[2] = tested on: androgen-dependent Dunning-H tumor; conditions: 120 mg/100 gm food, equivalent to 100 mg/kg per day
Plasmodium falciparum [3] = tested on: Plasmodium falciparum
Plasmodium falciparum [4] = tested on: Plasmodium falciparum; remark: listed apart in the source
sGC = target: T1, sGC (Homo sapiens, UniProt Q02153); parameters: dose or concentration left out as unconfirmed; conditions: broken cell preparations
T1 sequence (Q02153 1-619): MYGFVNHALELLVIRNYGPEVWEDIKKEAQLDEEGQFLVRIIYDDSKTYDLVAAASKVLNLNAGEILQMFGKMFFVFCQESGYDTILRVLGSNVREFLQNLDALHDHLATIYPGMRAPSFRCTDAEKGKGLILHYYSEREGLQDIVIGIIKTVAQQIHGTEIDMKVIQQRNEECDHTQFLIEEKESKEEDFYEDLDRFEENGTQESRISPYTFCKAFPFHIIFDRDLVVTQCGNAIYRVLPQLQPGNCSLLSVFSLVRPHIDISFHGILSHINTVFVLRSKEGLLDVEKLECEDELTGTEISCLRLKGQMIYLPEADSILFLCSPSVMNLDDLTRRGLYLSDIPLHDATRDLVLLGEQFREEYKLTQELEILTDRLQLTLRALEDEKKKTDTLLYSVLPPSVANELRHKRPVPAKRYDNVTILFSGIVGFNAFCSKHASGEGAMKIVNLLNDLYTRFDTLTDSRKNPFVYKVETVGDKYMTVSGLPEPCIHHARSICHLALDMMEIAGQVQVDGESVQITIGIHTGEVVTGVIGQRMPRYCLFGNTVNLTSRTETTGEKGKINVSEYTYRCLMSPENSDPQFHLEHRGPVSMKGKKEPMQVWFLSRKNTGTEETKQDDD
T1 sequence (Q02108 1-690 partner): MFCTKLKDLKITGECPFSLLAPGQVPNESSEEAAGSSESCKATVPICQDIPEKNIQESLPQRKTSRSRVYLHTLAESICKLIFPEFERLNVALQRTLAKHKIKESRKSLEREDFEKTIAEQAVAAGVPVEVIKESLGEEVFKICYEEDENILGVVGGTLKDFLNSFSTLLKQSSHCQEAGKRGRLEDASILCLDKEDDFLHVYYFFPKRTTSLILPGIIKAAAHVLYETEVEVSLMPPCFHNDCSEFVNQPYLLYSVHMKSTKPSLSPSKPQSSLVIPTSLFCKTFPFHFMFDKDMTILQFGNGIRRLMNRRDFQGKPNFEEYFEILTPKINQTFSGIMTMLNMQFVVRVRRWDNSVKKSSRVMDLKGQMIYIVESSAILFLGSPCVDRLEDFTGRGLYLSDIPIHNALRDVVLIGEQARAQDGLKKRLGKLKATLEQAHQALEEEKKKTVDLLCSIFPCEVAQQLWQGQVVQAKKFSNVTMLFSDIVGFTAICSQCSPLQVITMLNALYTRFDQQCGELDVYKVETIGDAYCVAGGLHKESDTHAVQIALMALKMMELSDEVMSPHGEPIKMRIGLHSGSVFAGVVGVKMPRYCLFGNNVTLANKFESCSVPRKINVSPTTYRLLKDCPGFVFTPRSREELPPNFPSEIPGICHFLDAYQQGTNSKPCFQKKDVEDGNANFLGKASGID

HO (heme oxygenase) = tested on: HO (heme oxygenase); parameters: dose or concentration left out as unconfirmed; conditions: broken cell preparations
NOS = tested on: NOS; parameters: dose or concentration left out as unconfirmed; conditions: broken cell preparations

## Clc1cccc(C(c2ccc3[nH]cnc3c2)n2ccnc2)c1 (stereo not shown) [Liarozole]
[1]
  Reduction of tumor growth: −73%
[2]
  Median tumor volume decrease: 60%

## O=CN(O)CCCP(=O)(O)O [fosmidomycin]
Plasmodium falciparum [3]; Gabon, seven out of nine subjects
  Subjects cured on day 28: 78%
Plasmodium falciparum [3]; Thailand, two out of nine subjects
  Subjects cured on day 28: 22%
Plasmodium falciparum [3]; oral 1,200 mg every 8 h for 7 days
  Clinical and parasitological cure on day 7 (primary end point): All subjects were clinically and parasitologically cured
Plasmodium falciparum [3]; oral 1,200 mg every 8 h for 7 days, mild gastrointestinal side effects in five subjects
  Tolerability: well tolerated
Plasmodium falciparum [4]; 1.2 g every 8 h for 3 days, six of ten
  Cure rate by day 14: 60%
Plasmodium falciparum [4]; 1.2 g every 8 h for 4 days, seven of eight
  Cure rate by day 14: 88%
Plasmodium falciparum [4]; 1.2 g every 8 h for 5 days, eight of nine
  Cure rate by day 14: 89%
Plasmodium falciparum [4]; all treatment regimens, 1.2 g every 8 h for 5, 4 or 3 days
  Tolerability: well tolerated

## chromium mesoporphyrin IX [CrMP]
sGC
  Effect on sGC: little or no effect
HO (heme oxygenase)
  Inhibition of HO: 90%
NOS
  Effect on NOS: little or no effect
